Values after ≈ are worked out from the molar mass of the structure shown. Where two headings read alike, the source gives them in different places.
Key:
Format in all cases: cell-based
[1] = system: strains of Peptoniphilus harei; test: MIC against anaerobes, agar dilution (CLSI), clinical isolates; settings: Peptoniphilus harei, read-out: MIC
[2] = system: strains of Bacteroides thetaiotaomicron; test: microbe, parasite or virus in culture
[3] = system: strains of Peptostreptococcus anaerobius; test: MIC against anaerobes, agar dilution (CLSI), clinical isolates
[4] = system: strains of Bacteroides fragilis; test: as above
[5] = system: strains of Prevotella melaninogenica; test: as above
[6] = system: Bacteroides thetaiotaomicron ATCC 29741; test: microbe, parasite or virus in culture; settings: ATCC29741, 48 h, read-out: MIC, B. thetaiotaomicron ATCC
[7] = system: strains of Clostridium perfringens; test: microbe, parasite or virus in culture
[8] = system: strains of Prevotella bivia; test: MIC against anaerobes, agar dilution (CLSI), clinical isolates
[9] = system: Clostridium difficile ATCC 700057; test: MIC against anaerobes, agar dilution (CLSI), reference strain; settings: Clostridioides difficile, ATCC700057, 48 h, read-out: MIC, C. difficile ATCC 700057
[10] = system: strains of Propionibacterium acnes; test: MIC against anaerobes, agar dilution (CLSI), clinical isolates; settings: Cutibacterium acnes
[11] = system: strains of Finegoldia magna; test: as above; settings: Finegoldia magna, read-out: MIC
[12] = system: Bacteroides fragilis ATCC 25285; test: MIC against anaerobes, agar dilution (CLSI), reference strain; settings: ATCC25285, agar dilution, Brucella blood agar, 35° C., 48 h, anaerobic conditions, read-out: MIC, B. fragilis ATCC 25285
[13] = system: strains of Parvimonas micra; test: MIC against anaerobes, agar dilution (CLSI), clinical isolates

With Cc1ncc([N+](=O)[O-])n1CCO [MTZ, metronidazole, reference compound] the MIC ([1]; Peptoniphilus harei strain 1) was 1 to 4 µg/mL (≈ 5.84 to 23.4 µM), the MIC ([1]; Peptoniphilus harei strain 2) was < 1 µg/mL and the MIC ([1]; Peptoniphilus harei strain 3) was < 1 µg/mL. The MIC ([1]; Peptoniphilus harei strain 4) was 1 to 4 µg/mL (≈ 5.84 to 23.4 µM), the MIC ([1]; Peptoniphilus harei strain 5) was < 1 µg/mL and the MIC ([1]; Peptoniphilus harei strain 6) was < 1 µg/mL. For the same compound, the MIC ([1]; Peptoniphilus harei strain 7) was < 1 µg/mL, the MIC ([1]; Peptoniphilus harei strain 8) was < 1 µg/mL and the MIC ([1]; Peptoniphilus harei strain 9) was 1 to 4 µg/mL (≈ 5.84 to 23.4 µM). The MIC ([1]; Peptoniphilus harei strain 10) was < 1 µg/mL, the MIC ([1]; Peptoniphilus harei strain 11) was < 1 µg/mL and the MIC ([1]; Peptoniphilus harei strain 12) was 1 to 4 µg/mL (≈ 5.84 to 23.4 µM). The MIC ([2]; Bacteroides thetaiotaomicron strain 1) was < 1 µg/mL, the MIC ([2]; Bacteroides thetaiotaomicron strain 2) was < 1 µg/mL and the MIC ([2]; Bacteroides thetaiotaomicron strain 3) was 1 to 4 µg/mL (≈ 5.84 to 23.4 µM). For the same compound, the MIC ([2]; Bacteroides thetaiotaomicron strain 4) was 1 to 4 µg/mL (≈ 5.84 to 23.4 µM), the MIC ([2]; Bacteroides thetaiotaomicron strain 5) was 1 to 4 µg/mL (≈ 5.84 to 23.4 µM) and the MIC ([2]; Bacteroides thetaiotaomicron strain 6) was 1 to 4 µg/mL (≈ 5.84 to 23.4 µM). The MIC ([2]; Bacteroides thetaiotaomicron strain 7) was < 1 µg/mL, the MIC ([2]; Bacteroides thetaiotaomicron strain 8) was 1 to 4 µg/mL (≈ 5.84 to 23.4 µM) and the MIC ([2]; Bacteroides thetaiotaomicron strain 9) was < 1 µg/mL. The MIC ([2]; Bacteroides thetaiotaomicron strain 10) was 1 to 4 µg/mL (≈ 5.84 to 23.4 µM), the MIC ([2]; Bacteroides thetaiotaomicron strain 11) was 1 to 4 µg/mL (≈ 5.84 to 23.4 µM) and the MIC ([3]; Peptostreptococcus anaerobius strain 1) was < 1 µg/mL. The MIC ([3]; Peptostreptococcus anaerobius strain 2) was < 1 µg/mL, the MIC ([3]; Peptostreptococcus anaerobius strain 3) was < 1 µg/mL and the MIC ([3]; Peptostreptococcus anaerobius strain 4) was < 1 µg/mL. For the same compound, the MIC ([3]; Peptostreptococcus anaerobius strain 5) was < 1 µg/mL, the MIC ([3]; Peptostreptococcus anaerobius strain 6) was < 1 µg/mL and the MIC ([3]; Peptostreptococcus anaerobius strain 7) was < 1 µg/mL. The MIC ([3]; Peptostreptococcus anaerobius strain 8) was < 1 µg/mL, the MIC ([3]; Peptostreptococcus anaerobius strain 9) was < 1 µg/mL and the MIC ([3]; Peptostreptococcus anaerobius strain 10) was < 1 µg/mL. For the same compound, the MIC ([4]; Bacteroides fragilis strain 1) was < 1 µg/mL, the MIC ([4]; Bacteroides fragilis strain 2) was < 1 µg/mL and the MIC ([4]; Bacteroides fragilis strain 3) was < 1 µg/mL. The MIC ([4]; Bacteroides fragilis strain 4) was < 1 µg/mL, the MIC ([4]; Bacteroides fragilis strain 5) was < 1 µg/mL and the MIC ([4]; Bacteroides fragilis strain 6) was < 1 µg/mL. For the same compound, the MIC ([4]; Bacteroides fragilis strain 7) was < 1 µg/mL, the MIC ([4]; Bacteroides fragilis strain 8) was < 1 µg/mL and the MIC ([4]; Bacteroides fragilis strain 9) was < 1 µg/mL. For the same compound, the MIC ([4]; Bacteroides fragilis strain 10) was < 1 µg/mL, the MIC ([4]; Bacteroides fragilis strain 11) was < 1 µg/mL and the MIC ([4]; Bacteroides fragilis strain 12) was < 1 µg/mL. For the same compound, the MIC ([5]; Prevotella melaninogenica strain 1) was < 1 µg/mL, the MIC ([5]; Prevotella melaninogenica strain 2) was < 1 µg/mL and the MIC ([5]; Prevotella melaninogenica strain 3) was < 1 µg/mL. The MIC ([5]; Prevotella melaninogenica strain 4) was < 1 µg/mL, the MIC ([5]; Prevotella melaninogenica strain 5) was < 1 µg/mL and the MIC ([5]; Prevotella melaninogenica strain 6) was < 1 µg/mL. The MIC ([5]; Prevotella melaninogenica strain 7) was < 1 µg/mL, the MIC ([5]; Prevotella melaninogenica strain 8) was < 1 µg/mL and the MIC ([5]; Prevotella melaninogenica strain 9) was < 1 µg/mL. The MIC ([5]; Prevotella melaninogenica strain 10) was < 1 µg/mL, the MIC ([5]; Prevotella melaninogenica strain 11) was < 1 µg/mL and the MIC [6] was 1 to 4 µg/mL (≈ 5.84 to 23.4 µM). For the same compound, the MIC ([7]; Clostridium perfringens strain 1) was 1 to 4 µg/mL (≈ 5.84 to 23.4 µM), the MIC ([7]; Clostridium perfringens strain 2) was < 1 µg/mL and the MIC ([7]; Clostridium perfringens strain 3) was < 1 µg/mL. The MIC ([7]; Clostridium perfringens strain 4) was < 1 µg/mL, the MIC ([7]; Clostridium perfringens strain 5) was < 1 µg/mL and the MIC ([7]; Clostridium perfringens strain 6) was 1 to 4 µg/mL (≈ 5.84 to 23.4 µM). For the same compound, the MIC ([7]; Clostridium perfringens strain 7) was < 1 µg/mL, the MIC ([7]; Clostridium perfringens strain 8) was < 1 µg/mL and the MIC ([7]; Clostridium perfringens strain 9) was < 1 µg/mL. The MIC ([7]; Clostridium perfringens strain 10) was < 1 µg/mL, the MIC ([7]; Clostridium perfringens strain 11) was 1 to 4 µg/mL (≈ 5.84 to 23.4 µM) and the MIC ([8]; Prevotella bivia strain 1) was 1 to 4 µg/mL (≈ 5.84 to 23.4 µM). For the same compound, the MIC ([8]; Prevotella bivia strain 2) was 1 to 4 µg/mL (≈ 5.84 to 23.4 µM), the MIC ([8]; Prevotella bivia strain 3) was 1 to 4 µg/mL (≈ 5.84 to 23.4 µM) and the MIC ([8]; Prevotella bivia strain 4) was 1 to 4 µg/mL (≈ 5.84 to 23.4 µM). The MIC ([8]; Prevotella bivia strain 5) was 1 to 4 µg/mL (≈ 5.84 to 23.4 µM), the MIC ([8]; Prevotella bivia strain 6) was 1 to 4 µg/mL (≈ 5.84 to 23.4 µM) and the MIC ([8]; Prevotella bivia strain 7) was 1 to 4 µg/mL (≈ 5.84 to 23.4 µM). It also gave an MIC ([8]; Prevotella bivia strain 8) of 1 to 4 µg/mL (≈ 5.84 to 23.4 µM), an MIC ([8]; Prevotella bivia strain 9) of 1 to 4 µg/mL (≈ 5.84 to 23.4 µM) and an MIC ([8]; Prevotella bivia strain 10) of 1 to 4 µg/mL (≈ 5.84 to 23.4 µM). The MIC [9] was < 1 µg/mL, the MIC ([10]; Propionibacterium acnes strain 1) was 16 to 64 µg/mL (≈ 93.5 to 374 µM) and the MIC ([10]; Propionibacterium acnes strain 2) was 16 to 64 µg/mL (≈ 93.5 to 374 µM). For the same compound, the MIC ([10]; Propionibacterium acnes strain 3) was 16 to 64 µg/mL (≈ 93.5 to 374 µM), the MIC ([10]; Propionibacterium acnes strain 4) was 16 to 64 µg/mL (≈ 93.5 to 374 µM) and the MIC ([10]; Propionibacterium acnes strain 5) was 16 to 64 µg/mL (≈ 93.5 to 374 µM). It also gave an MIC ([10]; Propionibacterium acnes strain 6) of 16 to 64 µg/mL (≈ 93.5 to 374 µM), an MIC ([10]; Propionibacterium acnes strain 7) of 16 to 64 µg/mL (≈ 93.5 to 374 µM) and an MIC ([10]; Propionibacterium acnes strain 8) of 16 to 64 µg/mL (≈ 93.5 to 374 µM). For the same compound, the MIC ([10]; Propionibacterium acnes strain 9) was 16 to 64 µg/mL (≈ 93.5 to 374 µM), the MIC ([10]; Propionibacterium acnes strain 10) was 16 to 64 µg/mL (≈ 93.5 to 374 µM) and the MIC ([10]; Propionibacterium acnes strain 11) was 16 to 64 µg/mL (≈ 93.5 to 374 µM). The MIC ([10]; Propionibacterium acnes strain 12) was 16 to 64 µg/mL (≈ 93.5 to 374 µM), the MIC ([11]; Finegoldia magna strain 1) was < 1 µg/mL and the MIC ([11]; Finegoldia magna strain 2) was < 1 µg/mL. For the same compound, the MIC ([11]; Finegoldia magna strain 3) was 1 to 4 µg/mL (≈ 5.84 to 23.4 µM), the MIC ([11]; Finegoldia magna strain 4) was < 1 µg/mL and the MIC ([11]; Finegoldia magna strain 5) was 1 to 4 µg/mL (≈ 5.84 to 23.4 µM). The MIC ([11]; Finegoldia magna strain 6) was 1 to 4 µg/mL (≈ 5.84 to 23.4 µM), the MIC ([11]; Finegoldia magna strain 7) was 1 to 4 µg/mL (≈ 5.84 to 23.4 µM) and the MIC ([11]; Finegoldia magna strain 8) was 1 to 4 µg/mL (≈ 5.84 to 23.4 µM). It also gave an MIC ([11]; Finegoldia magna strain 9) of 1 to 4 µg/mL (≈ 5.84 to 23.4 µM), an MIC ([11]; Finegoldia magna strain 10) of 1 to 4 µg/mL (≈ 5.84 to 23.4 µM) and an MIC ([11]; Finegoldia magna strain 11) of 1 to 4 µg/mL (≈ 5.84 to 23.4 µM). The MIC ([11]; Finegoldia magna strain 12) was < 1 µg/mL, the MIC [12] was < 1 µg/mL and the MIC ([13]; Parvimonas micra strain 1) was 1 to 4 µg/mL (≈ 5.84 to 23.4 µM). For the same compound, the MIC ([13]; Parvimonas micra strain 2) was < 1 µg/mL, the MIC ([13]; Parvimonas micra strain 3) was < 1 µg/mL and the MIC ([13]; Parvimonas micra strain 4) was < 1 µg/mL. The MIC ([13]; Parvimonas micra strain 5) was < 1 µg/mL, the MIC ([13]; Parvimonas micra strain 6) was < 1 µg/mL and the MIC ([13]; Parvimonas micra strain 7) was < 1 µg/mL. The MIC ([13]; Parvimonas micra strain 8) was < 1 µg/mL, the MIC ([13]; Parvimonas micra strain 9) was < 1 µg/mL and the MIC ([13]; Parvimonas micra strain 10) was 1 to 4 µg/mL (≈ 5.84 to 23.4 µM). The MIC ([13]; Parvimonas micra strain 11) was < 1 µg/mL and the MIC ([13]; Parvimonas micra strain 12) was < 1 µg/mL.

From patent US10487093B2, “Heterocyclic compounds, in particular 2-oxo-4,4,5,5,6,6,7,7-octahydrobenzoxazole derivatives, and their use as antibacterial compounds” (priority 2016, dated 2019)
